# Results taken from US20260022142A1, “MACROCYCLIC IMMUNOMODULATORS” (Bristol-Myers Squibb Company, priority 2022, published 2026).
# Bridge positions count the residues as written; N and C are the ends. Square brackets hold non-standard residues; d marks the D form. Peptide text beside a SMILES is read from it. * marks the point of attachment. ξ: configuration not given here. Phe(4-COOH) = N[C@@H](Cc1ccc(C(=O)O)cc1)C(=O)O; Bip = N[C@@H](Cc1ccc(-c2ccccc2)cc1)C(=O)O; Phe(3-Me) = Cc1cccc(C[C@H](N)C(=O)O)c1; Cha = N[C@@H](CC1CCCCC1)C(=O)O; Cit = NC(=O)NCCC[C@H](N)C(=O)O; Thr(3ξ) = CC(O)[C@H](N)C(=O)O; Carboxymethyl = O=C(O)C*; Orn = NCCC[C@H](N)C(=O)O; Aun = NCCCCCCCCCCC(=O)O; Dab = NCC[C@H](N)C(=O)O; AEEA = NCCOCCOCC(=O)O
# Target: T1, PD-1/PD-L1 interaction (PE-labeled human PD-L1-Ig binding to Jurkat cell line over-expressing human PD-1) (Homo sapiens, UniProt Q15116)
# T1 construct: expressed in transfected cells; host or cells: Jurkat
# T1 sequence (Q15116 25-288): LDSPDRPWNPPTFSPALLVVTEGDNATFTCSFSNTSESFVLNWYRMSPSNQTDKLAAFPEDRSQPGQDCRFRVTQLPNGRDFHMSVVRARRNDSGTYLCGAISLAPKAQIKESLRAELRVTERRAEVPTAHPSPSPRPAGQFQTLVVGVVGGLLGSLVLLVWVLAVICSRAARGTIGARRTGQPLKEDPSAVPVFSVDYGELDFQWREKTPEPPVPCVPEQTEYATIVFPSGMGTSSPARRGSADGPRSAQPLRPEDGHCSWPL
# Assay: Jurkat-PD-1 Cell Binding High-Content Screening Assay (CBA)
# Type: cell-based
# Conditions: Jurkat cell line over-expressing human PD-1; PE-labeled PD-L1-Ig 20 nM final; read-out: Jurkat hPD1-PDL1 IC50
# Method in brief: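 Jurkat cells over-expressing human PD-1 (8×10^3 per well, DMEM/10% FCS) preincubated with compound 2 h at 37° C, then PE-labeled human PD-L1-Ig (20 nM final) added for 1 h. Cells fixed with paraformaldehyde, Hoechst-stained, and bound fluorescence quantified by high-content imaging.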
row,SMILES,IC50 [nM]
1,Cc1cccc(C[C@@H]2NC(=O)[C@H](CC(=O)O)NC(=O)[C@H](Cc3ccc(OCC(=O)O)cc3)NC(=O)[C@H](CCCNC(=N)N)NC(=O)CSC[C@@H](C(=O)NCCOCCOCC(=O)NCCCCCCCCCCC(=O)O)NC(=O)[C@H](C(C)O)NC(=O)[C@H](C(C)C)NC(=O)[C@H](CC3CCCCC3)NC(=O)[C@H](CCN)NC(=O)[C@@H](CC(C)C)NC(=O)[C@H](CCCN)NC(=O)[C@H](CCCNC(N)=O)NC(=O)[C@H](Cc3ccc(-c4ccccc4)cc3)NC(=O)[C@H](C(C)C)NC2=O)c1 (stereo partly drawn) [Compound 3459] ({CH2CO}-RY(Carboxymethyl)D[Phe(3-Me)]V[Bip][Cit][Orn][dL][Dab][Cha]V[Thr(3ξ)]C[AEEA][Aun]-OH; thioether N-14),14.2
2,Cc1cccc(C[C@@H]2NC(=O)[C@H](CC(=O)O)NC(=O)[C@H](Cc3ccc(OCC(=O)O)cc3)NC(=O)[C@H](C(C)O)NC(=O)CSC[C@@H](C(=O)NCCOCCOCC(=O)NCCCCCCCCCCC(=O)O)NC(=O)[C@H](C(C)O)NC(=O)[C@H](C(C)C)NC(=O)[C@H](CC3CCCCC3)NC(=O)[C@H](CCN)NC(=O)[C@@H](CC(C)C)NC(=O)[C@H](CCCN)NC(=O)[C@H](CCCNC(N)=O)NC(=O)[C@H](Cc3ccc(-c4ccccc4)cc3)NC(=O)[C@H](C(C)C)NC2=O)c1 (stereo partly drawn) [Compound 3460] ({CH2CO}-[Thr(3ξ)]Y(Carboxymethyl)D[Phe(3-Me)]V[Bip][Cit][Orn][dL][Dab][Cha]V[Thr(3ξ)]C[AEEA][Aun]-OH; thioether N-14),17
3,Cc1cccc(C[C@@H]2NC(=O)[C@H](CC(=O)O)NC(=O)[C@H](Cc3ccc(C(=O)O)cc3)NC(=O)[C@H](Cc3ccc(OCC(=O)O)cc3)NC(=O)CSC[C@@H](C(=O)N[C@@H](CCN)C(=O)NCCCCCCCCCCC(=O)O)NC(=O)[C@H](C(C)O)NC(=O)[C@H](C(C)C)NC(=O)[C@H](CC3CCCCC3)NC(=O)[C@H](CCN)NC(=O)[C@@H](CC(C)C)NC(=O)[C@H](CCCN)NC(=O)[C@H](CCCNC(N)=O)NC(=O)[C@H](Cc3ccc(-c4ccccc4)cc3)NC(=O)[C@H](CC(C)C)NC2=O)c1 (stereo partly drawn) [Compound 3463] ({CH2CO}-Y(Carboxymethyl)[Phe(4-COOH)]D[Phe(3-Me)]L[Bip][Cit][Orn][dL][Dab][Cha]V[Thr(3ξ)]C[Dab][Aun]-OH; thioether N-14),31.3
4,CC(=O)NCCCC[C@@H]1NC(=O)[C@H](Cc2ccc(-c3ccccc3)cc2)NC(=O)[C@H](Cc2ccccc2)NC(=O)[C@H](Cc2cccc(C)c2)NC(=O)[C@H](CC(=O)O)NC(=O)[C@H](Cc2ccc(OCC(=O)O)cc2)NC(=O)[C@H](C(C)O)NC(=O)CSC[C@@H](C(=O)N[C@@H](CCN)C(=O)NCCCCCCCCCCC(=O)O)NC(=O)[C@H](C(C)O)NC(=O)[C@H](C(C)C)NC(=O)[C@H](CC2CCCCC2)NC(=O)[C@H](CCN)NC(=O)[C@@H](CC(C)C)NC(=O)[C@H](CCCNC(N)=O)NC1=O (stereo partly drawn) [Compound 3466] ({CH2CO}-[Thr(3ξ)]Y(Carboxymethyl)D[Phe(3-Me)]F[Bip]K(Ac)[Cit][dL][Dab][Cha]V[Thr(3ξ)]C[Dab][Aun]-OH; thioether N-14),19.5
5,Cc1cccc(C[C@@H]2NC(=O)[C@H](CC(=O)O)NC(=O)[C@H](Cc3ccc(OCC(=O)O)cc3)NC(=O)[C@H](C(C)O)NC(=O)CSC[C@@H](C(=O)N[C@@H](CCCCN)C(=O)NCCCCCCCCCCC(=O)O)NC(=O)[C@H](C(C)O)NC(=O)[C@H](C(C)C)NC(=O)[C@H](CC3CCCCC3)NC(=O)[C@H](CCN)NC(=O)[C@@H](CC(C)C)NC(=O)[C@H](CCCN)NC(=O)[C@H](CCCNC(N)=O)NC(=O)[C@H](Cc3ccc(-c4ccccc4)cc3)NC(=O)[C@H](C(C)C)NC2=O)c1 (stereo partly drawn) [Compound 3467] ({CH2CO}-[Thr(3ξ)]Y(Carboxymethyl)D[Phe(3-Me)]V[Bip][Cit][Orn][dL][Dab][Cha]V[Thr(3ξ)]CK[Aun]-OH; thioether N-14),33
6,Cc1cccc(C[C@@H]2NC(=O)[C@H](CC(=O)O)NC(=O)[C@H](Cc3ccc(OCC(=O)O)cc3)NC(=O)[C@H](CCCNC(=N)N)NC(=O)CSC[C@@H](C(=O)N[C@@H](CCCCN)C(=O)NCCCCCCCCCCC(=O)O)NC(=O)[C@H](C(C)O)NC(=O)[C@H](C(C)C)NC(=O)[C@H](CC3CCCCC3)NC(=O)[C@H](CCN)NC(=O)[C@@H](CC(C)C)NC(=O)[C@H](CCCN)NC(=O)[C@H](CCCNC(N)=O)NC(=O)[C@H](Cc3ccc(-c4ccccc4)cc3)NC(=O)[C@H](C(C)C)NC2=O)c1 (stereo partly drawn) [Compound 3468] ({CH2CO}-RY(Carboxymethyl)D[Phe(3-Me)]V[Bip][Cit][Orn][dL][Dab][Cha]V[Thr(3ξ)]CK[Aun]-OH; thioether N-14),26
7,Cc1cccc(C[C@@H]2NC(=O)[C@H](CC(=O)O)NC(=O)[C@H](Cc3ccc(OCC(=O)O)cc3)NC(=O)[C@H](C(C)O)NC(=O)CSC[C@@H](C(=O)N[C@@H](CCCCN)C(=O)NCCCCCCCCCCC(=O)O)NC(=O)[C@H](CCCCN)NC(=O)[C@H](C(C)C)NC(=O)[C@H](CC3CCCCC3)NC(=O)[C@H](CCN)NC(=O)[C@@H](CC(C)C)NC(=O)[C@H](CCCN)NC(=O)[C@H](CCCNC(N)=O)NC(=O)[C@H](Cc3ccc(-c4ccccc4)cc3)NC(=O)[C@H](C(C)C)NC2=O)c1 (stereo partly drawn) [Compound 3469] ({CH2CO}-[Thr(3ξ)]Y(Carboxymethyl)D[Phe(3-Me)]V[Bip][Cit][Orn][dL][Dab][Cha]VKCK[Aun]-OH; thioether N-14),16.9
8,Cc1cccc(C[C@@H]2NC(=O)[C@H](CC(=O)O)NC(=O)[C@H](Cc3ccc(OCC(=O)O)cc3)NC(=O)[C@H](CCCNC(=N)N)NC(=O)CSC[C@@H](C(=O)N[C@@H](CCCCN)C(=O)NCCCCCCCCCCC(=O)O)NC(=O)[C@H](CCCCN)NC(=O)[C@H](C(C)C)NC(=O)[C@H](CC3CCCCC3)NC(=O)[C@H](CCN)NC(=O)[C@@H](CC(C)C)NC(=O)[C@H](CCCN)NC(=O)[C@H](CCCNC(N)=O)NC(=O)[C@H](Cc3ccc(-c4ccccc4)cc3)NC(=O)[C@H](C(C)C)NC2=O)c1 [Compound 3470] ({CH2CO}-RY(Carboxymethyl)D[Phe(3-Me)]V[Bip][Cit][Orn][dL][Dab][Cha]VKCK[Aun]-OH; thioether N-14),24.8
9,Cc1cccc(C[C@@H]2NC(=O)[C@H](CC(=O)O)NC(=O)[C@H](Cc3ccc(OCC(=O)O)cc3)NC(=O)[C@H](C(C)C)NC(=O)CSC[C@@H](C(=O)N[C@@H](CCCCN)C(=O)NCCCCCCCCCCC(=O)O)NC(=O)[C@H](C(C)O)NC(=O)[C@H](C(C)C)NC(=O)[C@H](CC3CCCCC3)NC(=O)[C@H](CCN)NC(=O)[C@@H](CC(C)C)NC(=O)[C@H](CCCN)NC(=O)[C@H](C(C)C)NC(=O)[C@H](Cc3ccc(-c4ccccc4)cc3)NC(=O)[C@H](C(C)C)NC2=O)c1 (stereo partly drawn) [Compound 3471] ({CH2CO}-VY(Carboxymethyl)D[Phe(3-Me)]V[Bip]V[Orn][dL][Dab][Cha]V[Thr(3ξ)]CK[Aun]-OH; thioether N-14),21.2
10,Cc1cccc(C[C@@H]2NC(=O)[C@H](CC(=O)O)NC(=O)[C@H](Cc3ccc(OCC(=O)O)cc3)NC(=O)[C@H](C(C)O)NC(=O)CSC[C@@H](C(=O)N[C@@H](CCCCN)C(=O)NCCCCCCCCCCC(=O)O)NC(=O)[C@H](CCCCN)NC(=O)[C@H](C(C)C)NC(=O)[C@H](CC3CCCCC3)NC(=O)[C@H](CCN)NC(=O)[C@@H](CC(C)C)NC(=O)[C@H](CCCN)NC(=O)[C@H](C(C)C)NC(=O)[C@H](Cc3ccc(-c4ccccc4)cc3)NC(=O)[C@H](C(C)C)NC2=O)c1 (stereo partly drawn) [Compound 3472] ({CH2CO}-[Thr(3ξ)]Y(Carboxymethyl)D[Phe(3-Me)]V[Bip]V[Orn][dL][Dab][Cha]VKCK[Aun]-OH; thioether N-14),13.3
11,Cc1cccc(C[C@@H]2NC(=O)[C@H](CC(=O)O)NC(=O)[C@H](Cc3ccc(OCC(=O)O)cc3)NC(=O)[C@H](CCCNC(=N)N)NC(=O)CSC[C@@H](C(=O)N[C@@H](CCCCN)C(=O)NCCCCCCCCCCC(=O)O)NC(=O)[C@H](C(C)O)NC(=O)[C@H](C(C)C)NC(=O)[C@H](CC3CCCCC3)NC(=O)[C@H](CCN)NC(=O)[C@@H](CC(C)C)NC(=O)[C@H](CCCN)NC(=O)[C@H](Cc3ccc(O)cc3)NC(=O)[C@H](Cc3ccc(-c4ccccc4)cc3)NC(=O)[C@H](C(C)C)NC2=O)c1 (stereo partly drawn) [Compound 3473] ({CH2CO}-RY(Carboxymethyl)D[Phe(3-Me)]V[Bip]Y[Orn][dL][Dab][Cha]V[Thr(3ξ)]CK[Aun]-OH; thioether N-14),15.1
12,Cc1cccc(C[C@@H]2NC(=O)[C@H](CC(=O)O)NC(=O)[C@H](Cc3ccc(OCC(=O)O)cc3)NC(=O)[C@H](CCCNC(=N)N)NC(=O)CSC[C@@H](C(=O)N[C@@H](CCCCN)C(=O)NCCCCCCCCCCC(=O)O)NC(=O)[C@H](CCCN)NC(=O)[C@H](C(C)C)NC(=O)[C@H](CC3CCCCC3)NC(=O)[C@H](CCN)NC(=O)[C@@H](CC(C)C)NC(=O)[C@H](CCCN)NC(=O)[C@H](CCCNC(N)=O)NC(=O)[C@H](Cc3ccc(-c4ccccc4)cc3)NC(=O)[C@H](C(C)C)NC2=O)c1 [Compound 3474] ({CH2CO}-RY(Carboxymethyl)D[Phe(3-Me)]V[Bip][Cit][Orn][dL][Dab][Cha]V[Orn]CK[Aun]-OH; thioether N-14),11.8
13,Cc1cccc(C[C@@H]2NC(=O)[C@H](CC(=O)O)NC(=O)[C@H](Cc3ccc(OCC(=O)O)cc3)NC(=O)[C@H](CCCNC(=N)N)NC(=O)CSC[C@@H](C(=O)N[C@@H](CCCCN)C(=O)NCCCCCCCCCCC(=O)O)NC(=O)[C@H](C(C)O)NC(=O)[C@H](C(C)C)NC(=O)[C@H](CC3CCCCC3)NC(=O)[C@H](CCN)NC(=O)[C@@H](CC(C)C)NC(=O)[C@H](CCCN)NC(=O)[C@H](C(C)C)NC(=O)[C@H](Cc3ccc(-c4ccccc4)cc3)NC(=O)[C@H](C(C)C)NC2=O)c1 (stereo partly drawn) [Compound 3475] ({CH2CO}-RY(Carboxymethyl)D[Phe(3-Me)]V[Bip]V[Orn][dL][Dab][Cha]V[Thr(3ξ)]CK[Aun]-OH; thioether N-14),25.7
